Results as given in ChEMBL document CHEMBL5038581, “Design, synthesis, and biological evaluation of novel dual inhibitors targeting lysine specific demethylase 1 (LSD1) and histone deacetylases (HDAC) for treatment of gastric cancer” (Eur J Med Chem, 2021).

Key:
[1] = biological target: Histone deacetylase 1 (Homo sapiens, UniProt Q13547); assay: Inhibition of HDAC1 (unknown origin) using Ac-peptide as substrate preincubated for 15 mins followed by substrate addition by fluorescence assay
[2] = system: MGC-803; assay: cells; details: Homo sapiens, MGC-803, 72 h
[3] = biological target: T1, Lysine-specific histone demethylase 1A (Homo sapiens, UniProt O60341); assay: Inhibition of recombinant LSD1 (157 to 852 residues) (unknown origin) expressed in Escherichia coli BL21 (DE) at 10 uM using H3K4me2 as substrate by amplex red assay relative to control
[4] = system: HCT-116; assay: cells; details: Homo sapiens, HCT-116, 72 h
[5] = biological target: CYP2C9 (Homo sapiens, UniProt P11712); assay: in vitro; details: probe diclofenac
[6] = biological target: T1, Lysine-specific histone demethylase 1A; assay: Inhibition of recombinant LSD1 (157 to 852 residues) (unknown origin) expressed in Escherichia coli BL21 (DE) using H3K4me2 as substrate by amplex red assay
[7] = biological target: Histone deacetylase 5 (Homo sapiens, UniProt Q9UQL6); assay: Inhibition of HDAC5 (unknown origin) using Ac-peptide as substrate preincubated for 15 mins followed by substrate addition by fluorescence assay
[8] = biological target: T2, Protein deacetylase HDAC6 (Homo sapiens, UniProt Q9UBN7); assay: Inhibition of HDAC6 (unknown origin) using Ac-peptide as substrate preincubated for 15 mins followed by substrate addition by fluorescence assay
T2 sequence (Q9UBN7 whole entry): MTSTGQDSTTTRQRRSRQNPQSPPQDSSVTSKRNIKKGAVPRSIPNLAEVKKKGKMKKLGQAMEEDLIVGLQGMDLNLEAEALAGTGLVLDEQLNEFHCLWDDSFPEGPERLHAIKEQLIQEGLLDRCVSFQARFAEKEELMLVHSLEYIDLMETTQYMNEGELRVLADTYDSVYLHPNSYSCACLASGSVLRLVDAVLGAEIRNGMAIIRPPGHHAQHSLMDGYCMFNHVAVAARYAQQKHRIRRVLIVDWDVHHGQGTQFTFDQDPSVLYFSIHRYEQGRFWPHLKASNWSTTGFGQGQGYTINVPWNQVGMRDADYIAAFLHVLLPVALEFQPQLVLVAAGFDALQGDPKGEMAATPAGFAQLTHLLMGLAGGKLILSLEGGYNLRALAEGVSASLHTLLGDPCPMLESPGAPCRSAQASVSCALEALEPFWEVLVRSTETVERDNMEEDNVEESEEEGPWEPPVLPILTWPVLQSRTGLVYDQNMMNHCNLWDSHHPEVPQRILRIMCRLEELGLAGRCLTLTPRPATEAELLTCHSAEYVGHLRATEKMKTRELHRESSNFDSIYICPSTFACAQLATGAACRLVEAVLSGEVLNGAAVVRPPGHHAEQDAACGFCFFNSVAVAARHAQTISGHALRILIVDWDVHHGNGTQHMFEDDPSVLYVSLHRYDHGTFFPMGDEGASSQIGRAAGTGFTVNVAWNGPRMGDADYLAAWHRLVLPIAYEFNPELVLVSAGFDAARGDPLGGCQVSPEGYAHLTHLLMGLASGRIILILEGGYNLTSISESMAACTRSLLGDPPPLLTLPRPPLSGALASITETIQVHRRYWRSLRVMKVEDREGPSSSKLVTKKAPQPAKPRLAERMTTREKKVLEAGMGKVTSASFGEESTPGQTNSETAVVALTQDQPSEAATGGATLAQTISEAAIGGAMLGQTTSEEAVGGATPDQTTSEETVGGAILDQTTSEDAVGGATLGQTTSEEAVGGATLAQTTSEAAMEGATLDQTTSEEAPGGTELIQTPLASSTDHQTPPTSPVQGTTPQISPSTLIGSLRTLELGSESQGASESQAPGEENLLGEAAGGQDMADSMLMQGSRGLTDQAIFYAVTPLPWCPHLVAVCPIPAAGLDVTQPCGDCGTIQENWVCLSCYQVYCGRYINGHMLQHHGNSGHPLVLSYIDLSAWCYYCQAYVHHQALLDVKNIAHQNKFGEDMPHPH

[9] = system: AGS; assay: cells; details: Homo sapiens, 72 h
[10] = system: SNU1; assay: cells; details: Homo sapiens, SNU1, 72 h
[11] = system: NCI-N87; assay: cells; details: Homo sapiens, NCI-N87, 72 h
[12] = system: MKN-45; assay: cells; details: Homo sapiens, MKN-45, 72 h
[13] = system: MKN-1; assay: cells; details: Homo sapiens, MKN-1, 72 h
[14] = system: BGC-823; assay: cells; details: Homo sapiens, BGC-823, 72 h
[15] = biological target: Histone deacetylase 2 (Homo sapiens, UniProt Q92769)
[16] = system: MGC-803; assay: Antiproliferative activity against human MGC-803 cells assessed as reduction in cell viability at 10 uM after 72 hrs by CellTiter-Glo assay; assay type: functional
[17] = biological target: T3, CYP1A2 (Homo sapiens, UniProt P05177); assay: in vitro; details: probe phenacetin
T3 sequence (P05177 whole entry): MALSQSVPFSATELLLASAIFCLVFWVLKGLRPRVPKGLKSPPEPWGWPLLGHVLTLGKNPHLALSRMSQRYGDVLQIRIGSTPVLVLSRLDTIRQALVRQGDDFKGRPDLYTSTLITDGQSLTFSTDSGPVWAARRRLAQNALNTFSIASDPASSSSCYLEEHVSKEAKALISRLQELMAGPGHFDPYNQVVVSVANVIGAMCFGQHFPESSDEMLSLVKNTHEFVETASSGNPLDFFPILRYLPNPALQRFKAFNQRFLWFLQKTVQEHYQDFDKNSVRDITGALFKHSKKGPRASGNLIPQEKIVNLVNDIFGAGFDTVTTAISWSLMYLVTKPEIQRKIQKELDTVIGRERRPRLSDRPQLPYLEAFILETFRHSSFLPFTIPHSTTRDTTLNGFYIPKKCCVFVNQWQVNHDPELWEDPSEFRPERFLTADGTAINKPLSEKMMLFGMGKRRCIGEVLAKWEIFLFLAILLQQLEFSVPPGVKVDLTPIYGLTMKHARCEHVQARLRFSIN

[18] = system: MGC-803; assay: Induction of apoptosis in human MGC-803 cells assessed as apoptotic cells at 5 uM incubated for 48 hrs by annexin V-FITC and PI staining based flowcytometry analysis (Rvb =4.3 %); assay type: functional

Sequence of Histone deacetylase 5 (Q9UQL6 whole entry): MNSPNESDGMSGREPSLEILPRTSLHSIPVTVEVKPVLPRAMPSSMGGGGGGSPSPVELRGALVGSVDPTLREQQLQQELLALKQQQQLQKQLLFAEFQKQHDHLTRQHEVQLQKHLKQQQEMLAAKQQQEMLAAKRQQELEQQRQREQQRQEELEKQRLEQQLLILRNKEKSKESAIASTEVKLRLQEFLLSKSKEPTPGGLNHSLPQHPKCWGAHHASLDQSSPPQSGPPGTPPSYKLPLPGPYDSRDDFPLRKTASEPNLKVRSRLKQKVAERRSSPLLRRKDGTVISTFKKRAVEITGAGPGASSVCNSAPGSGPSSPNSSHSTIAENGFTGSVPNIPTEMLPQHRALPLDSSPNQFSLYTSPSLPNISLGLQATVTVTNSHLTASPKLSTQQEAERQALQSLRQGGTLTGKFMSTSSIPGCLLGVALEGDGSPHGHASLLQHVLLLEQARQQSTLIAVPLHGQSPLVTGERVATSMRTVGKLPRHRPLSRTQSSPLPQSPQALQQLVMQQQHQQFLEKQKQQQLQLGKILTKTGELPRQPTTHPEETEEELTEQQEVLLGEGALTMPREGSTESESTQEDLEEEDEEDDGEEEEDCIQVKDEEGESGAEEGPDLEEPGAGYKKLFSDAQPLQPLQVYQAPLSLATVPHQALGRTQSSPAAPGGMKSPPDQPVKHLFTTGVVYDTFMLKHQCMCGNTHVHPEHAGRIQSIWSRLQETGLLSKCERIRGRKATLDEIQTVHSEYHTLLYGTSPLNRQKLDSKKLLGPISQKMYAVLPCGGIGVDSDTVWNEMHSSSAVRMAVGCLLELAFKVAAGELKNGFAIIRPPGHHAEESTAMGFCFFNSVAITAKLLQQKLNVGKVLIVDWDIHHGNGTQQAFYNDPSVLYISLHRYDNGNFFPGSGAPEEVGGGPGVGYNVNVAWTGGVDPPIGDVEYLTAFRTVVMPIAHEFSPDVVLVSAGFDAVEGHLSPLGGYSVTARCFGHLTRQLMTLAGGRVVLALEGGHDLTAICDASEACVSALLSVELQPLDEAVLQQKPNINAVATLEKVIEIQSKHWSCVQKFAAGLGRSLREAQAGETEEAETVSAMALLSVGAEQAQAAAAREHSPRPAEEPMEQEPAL
Sequence of Histone deacetylase 1 (Q13547 whole entry): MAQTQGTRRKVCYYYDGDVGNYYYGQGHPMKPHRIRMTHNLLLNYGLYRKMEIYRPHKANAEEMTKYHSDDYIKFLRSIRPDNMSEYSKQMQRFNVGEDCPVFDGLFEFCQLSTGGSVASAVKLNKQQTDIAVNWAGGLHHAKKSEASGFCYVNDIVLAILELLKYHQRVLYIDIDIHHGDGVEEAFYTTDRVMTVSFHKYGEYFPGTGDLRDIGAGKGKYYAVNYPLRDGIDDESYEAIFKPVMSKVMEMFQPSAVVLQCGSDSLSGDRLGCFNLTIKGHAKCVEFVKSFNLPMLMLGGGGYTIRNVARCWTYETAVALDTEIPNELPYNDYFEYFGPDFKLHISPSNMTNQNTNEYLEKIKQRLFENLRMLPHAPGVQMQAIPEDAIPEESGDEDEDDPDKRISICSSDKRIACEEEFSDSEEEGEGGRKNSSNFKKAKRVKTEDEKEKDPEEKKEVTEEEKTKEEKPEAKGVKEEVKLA
Sequence of Histone deacetylase 2 (Q92769 whole entry): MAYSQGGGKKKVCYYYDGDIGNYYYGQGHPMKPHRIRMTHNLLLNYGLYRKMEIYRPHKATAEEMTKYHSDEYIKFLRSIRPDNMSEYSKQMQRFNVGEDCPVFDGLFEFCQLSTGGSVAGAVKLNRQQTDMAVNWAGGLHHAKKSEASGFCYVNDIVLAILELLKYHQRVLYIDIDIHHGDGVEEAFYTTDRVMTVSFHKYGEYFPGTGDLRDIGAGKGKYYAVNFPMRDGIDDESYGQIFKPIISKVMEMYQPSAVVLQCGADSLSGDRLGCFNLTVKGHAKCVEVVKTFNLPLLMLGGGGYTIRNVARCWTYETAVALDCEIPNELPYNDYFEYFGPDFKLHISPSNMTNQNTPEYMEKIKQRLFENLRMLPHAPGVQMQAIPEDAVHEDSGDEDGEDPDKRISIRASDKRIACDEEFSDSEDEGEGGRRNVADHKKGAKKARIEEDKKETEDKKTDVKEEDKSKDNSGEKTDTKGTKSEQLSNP
Sequence of CYP2C9 (P11712 whole entry, the tested form may be a part): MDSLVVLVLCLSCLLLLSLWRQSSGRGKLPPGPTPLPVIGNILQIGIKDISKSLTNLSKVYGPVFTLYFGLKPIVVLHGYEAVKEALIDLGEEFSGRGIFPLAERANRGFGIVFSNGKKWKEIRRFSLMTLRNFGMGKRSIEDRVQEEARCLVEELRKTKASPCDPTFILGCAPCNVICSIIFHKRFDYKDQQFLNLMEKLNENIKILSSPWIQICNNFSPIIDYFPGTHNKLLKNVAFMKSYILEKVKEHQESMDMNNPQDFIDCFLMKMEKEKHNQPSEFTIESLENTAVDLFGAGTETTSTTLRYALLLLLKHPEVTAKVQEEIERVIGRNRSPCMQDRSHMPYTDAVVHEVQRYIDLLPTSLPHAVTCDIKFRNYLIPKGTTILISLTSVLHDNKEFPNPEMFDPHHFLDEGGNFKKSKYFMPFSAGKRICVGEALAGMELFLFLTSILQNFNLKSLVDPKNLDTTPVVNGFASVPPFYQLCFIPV

SMILES	IC50 [1] [µM]	IC50 [2] [µM]	IC50 [4] [µM]	IC50 [6] [µM]	IC50 [7] [µM]	IC50 [8] [µM]	other results
Cc1ccc(-c2cc(/C=C/c3ccc(C(=O)NO)cc3)c(F)cn2)cc1	1.18	> 10	> 10				inhibition [3]: 20.7%
O=C(NO)c1ccc(/C=C/c2cc(-c3ccc(C(F)(F)F)cc3)ncc2F)cc1	2.95	> 10	> 10				inhibition [3]: 5.6%
Cc1ccc(-c2cncc(/C=C/c3ccc(C(=O)NO)cc3)c2)cc1	43.6	> 10	> 10				inhibition [3]: 29.8%
Nc1ccc(S(=O)(=O)Nc2ccnn2-c2ccccc2)cc1 [SULFAPHENAZOLE]							inhibition at 1 µM [5]: 79.9%
Cc1ccc(-c2cc(/C=C/c3ccc(C(=O)NO)cc3)ccn2)cc1	0.96	1.91	2.39	2.7	> 10	0.15	
C/C(=N\NC(=O)c1cccc(S(=O)(=O)N2CCOCC2)c1)c1cc(Cl)ccc1O							IC50 [9]: 6.19 µM; IC50 [10]: 8.03 µM; IC50 [11]: 10.5 µM; IC50 [12]: 26.7 µM; IC50 [13]: 8.98 µM; IC50 [14]: 8.08 µM
O=C(NO)c1ccc(/C=C/c2ccncc2)cc1	0.63	3.93	3.91	0.85	> 10	0.13	
O=C(NO)c1ccc(/C=C/c2ccnc(-c3ccsc3)c2)cc1	0.21	3.68	1.91	2.03	> 10	0.054	
N/C(=N\O)c1cccc(/C=C/c2ccnc(-c3cc(F)ccc3O)c2)c1							inhibition at 10 µM [16]: 35.3%
O=C(NO)c1ccc(/C=C/c2ccnc(-c3ccc(F)cc3)c2)cc1		> 10	> 10				inhibition [3]: 21.2%
O=c1cc(-c2ccccc2)oc2c1ccc1ccccc12 [ALPHA-NAPHTHOFLAVONE]							inhibition at 0.2 µM [17]: 90.9%
COc1ccc(F)cc1-c1cncc(/C=C/c2ccc(C(=O)NO)cc2)c1	0.67	3.36	3.41	1.6	> 10	0.093	
COc1ccc(-c2cc(/C=C/c3ccc(C(=O)NO)cc3)ccn2)cc1	0.69	3.51	3.56	1.9	> 10	0.11	
O=C(NO)c1ccc(/C=C/c2cccc(-c3cccc(O)c3)c2)cc1	1.24	8.82	> 10	3.65	> 10	0.2	
O=C(CCCCCCC(=O)Nc1ccccc1)NO [VORINOSTAT]		1.54	1.85				Activity [18]: 73.8%
O=C(NO)c1ccc(/C=C/c2ccnc(-c3ccc(C(F)(F)F)cc3)c2)cc1	4.84	> 10	> 10				inhibition [3]: 33%
Cc1ccc(-c2cc(/C=C/c3ccc(C(=O)NO)cc3)c(F)cn2)c(F)c1	0.88	2.51	1.67				inhibition [3]: 55.2%
O=C(NO)c1ccc(/C=C/c2ccnc(Br)c2)cc1	3.66	> 10	> 10	1.02	> 10	0.32	
N[C@H]1CC[C@H](N[C@@H]2C[C@H]2c2ccccc2)CC1							IC50 [9]: > 50 µM; IC50 [10]: > 50 µM; IC50 [11]: > 50 µM; IC50 [12]: > 50 µM; IC50 [13]: > 50 µM; IC50 [14]: > 50 µM
O=C(NO)c1ccc(/C=C/c2cccc(-c3cc(F)ccc3O)c2)cc1	2.12	> 10	> 10	3.51	> 10	0.24	
O=C(NO)c1ccc(/C=C/c2cncc(-c3ccc(C(F)(F)F)cc3)c2)cc1		> 10	> 10				inhibition [3]: 5.6%
Cc1ccc(-c2cncc(/C=C/c3ccc(C(=O)NO)cc3)c2)c(F)c1	1.07	2.24	2.99	3.06	> 10	0.15	

Second part, led by results:

IC50 [1] [µM]	IC50 [2] [µM]	IC50 [4] [µM]	IC50 [6] [µM]	IC50 [7] [µM]	IC50 [8] [µM]	SMILES	other results
1.14	1.92	2.04	2.2	9.34	0.13	O=C(NO)c1ccc(/C=C/c2ccnc(-c3cc(F)ccc3O)c2)cc1	
0.93	5.99	4.23	1.95	> 10	0.18	O=C(NO)c1ccc(/C=C/c2cccc(-c3ccccc3O)c2)cc1	
0.29	2.1	1.61	1.83	> 10	0.019	O=C(NO)c1ccc(/C=C/c2ccnc(-c3cccc(O)c3)c2)cc1	
1.51	2.71	3.89		> 10	0.4	O=C(NO)c1cccc(/C=C/c2ccnc(-c3cc(F)ccc3O)c2)c1	IC50 [15]: 2.06 µM
1.04	6.35	8.44	1.07	> 10	0.028	COc1ccccc1-c1cc(/C=C/c2ccc(C(=O)NO)cc2)ccn1	
0.58	4.55	5.14	1.37	> 10	0.014	O=C(NO)c1ccc(/C=C/c2ccnc(-c3cccnc3)c2)cc1	
0.28	1.74	1.7	1.14	> 10	0.034	O=C(NO)c1ccc(/C=C/c2ccnc(-c3cccc(CO)c3)c2)cc1	
3.37	5.46	4.68	0.51	> 10	0.013	O=C(NO)c1ccc(/C=C/c2cncc(-c3ccccc3O)c2)cc1	
0.47	> 10	> 10				O=C(/C=C/c1ccc(/C=C/c2ccnc(-c3ccccc3O)c2)cc1)NO	inhibition [3]: 22.9%
1.47	2.81	3.36	2.26	> 10	0.39	O=C(NO)c1cccc(/C=C/c2ccnc(-c3ccccc3O)c2)c1	IC50 [15]: 1.87 µM
